Data published in EPA's ToxRefDB 2.

Assays:
[1] = system: mouse; settings: Carcinogenicity; b6c3f1; Oral; Water; dose end: 90 week; group: systemic; systemic / pathology microscopic / liver / adenoma/carcinoma combined + systemic / pathology microscopic / liver / carcinoma + systemic / …
[2] = system: rat; settings: Carcinogenicity, other, Oral, Water, dose end: 110 week, group: systemic
[3] = system: dog; settings: Chronic toxicity; beagle; Oral; Capsule; dose end: 26 week; group: systemic; systemic / in life observation / body weight / body weight gain + systemic / in life observation / clinical signs / [other] + systemic / in …
[4] = system: rat; settings: Prenatal developmental toxicity study, sprague dawley, Oral, Gavage/Intubation, dose end: 17 GD
[5] = system: rabbit; settings: Prenatal developmental toxicity study, new zealand white, Oral, Gavage/Intubation, dose end: 19 GD, group: maternal
[6] = system: rat; settings: Sub-acute repeat dose toxicity, sprague dawley, Oral, Gavage/Intubation, dose end: 28 day, group: systemic
[7] = system: rabbit; settings: Prenatal developmental toxicity study, new zealand white, Oral, Gavage/Intubation, dose end: 19 GD, group: maternal; remark: listed apart in the source
[8] = system: rat; settings: Prenatal developmental toxicity study, sprague dawley, Oral, Gavage/Intubation, dose end: 17 GD; remark: listed apart in the source
[9] = system: dog; settings: Sub-acute repeat dose toxicity, beagle, Oral, Capsule, dose end: 4 week, group: systemic
[10] = system: rat; settings: Fertility (Segment I); sprague dawley; Oral; Gavage/Intubation; dose end: 7 GD; group: parental; systemic / in life observation / body weight / body weight + systemic / in life observation / clinical signs / abnormal gait + systemic / in…
[11] = system: rabbit; settings: Prenatal developmental toxicity study, new zealand white, Oral, Gavage/Intubation, dose end: 19 GD, group: maternal; remark: listed apart in the source
[12] = system: rat; settings: Sub-acute repeat dose toxicity, sprague dawley, Oral, Gavage/Intubation, dose end: 28 day, group: systemic; remark: listed apart in the source
[13] = system: rat; settings: Chronic toxicity, sprague dawley, Oral, Gavage/Intubation, dose end: 6 month, group: systemic
[14] = system: rabbit; settings: Prenatal developmental toxicity study; new zealand white; Oral; Gavage/Intubation; dose end: 19 GD; group: maternal; reproductive / offspring survival early / litter viability other / total litter loss + systemic / in life observation / body weight / body …
[15] = system: dog; settings: Sub-acute repeat dose toxicity, beagle, Oral, Gavage/Intubation, dose end: 4 week, group: systemic
[16] = system: rat; settings: Fertility (Segment I), sprague dawley, Oral, Gavage/Intubation, dose end: 7 GD
[17] = system: rat; settings: Prenatal developmental toxicity study, sprague dawley, Oral, Gavage/Intubation, dose end: 17 GD; remark: listed apart in the source
[18] = systemic / pathology microscopic / kidney / degeneration + systemic / pathology microscopic / stomach / ulcer
[19] = systemic / pathology microscopic / kidney / degeneration + systemic / pathology microscopic / stomach / ulcer + systemic / pathology …
[20] = group: developmental, developmental / developmental malformation / mouth / jaw / cleft palate
[21] = group: maternal, systemic / in life observation / body weight / body weight gain + systemic / in life observation / clinical signs / abnormal gait + systemic…
[22] = systemic / in life observation / body weight / body weight gain + systemic / in life observation / food consumption / food consumption
[23] = systemic / in life observation / body weight / body weight gain + systemic / in life observation / food consumption / food consumption + …
[24] = systemic / in life observation / clinical signs / unsteady gait + systemic / in life observation / body weight / body weight gain
[25] = systemic / in life observation / clinical signs / unsteady gait + systemic / in life observation / body weight / body weight gain + systemic…
[26] = systemic / in life observation / body weight / body weight gain + systemic / in life observation / clinical signs / defecation + systemic / …
[27] = systemic / in life observation / clinical signs / abnormal feces + systemic / in life observation / clinical signs / body cold to touch + …
[28] = group: developmental, developmental / developmental malformation / mouth / jaw / cleft palate + systemic / in life observation / body weight / fetal weight
[29] = group: maternal, systemic / in life observation / clinical signs / impaired righting reflex + systemic / in life observation / clinical signs / piloerection
[30] = systemic / clinical chemistry / albumin / albumin + systemic / clinical chemistry / cholesterol / cholesterol + systemic / clinical …
[31] = systemic / clinical chemistry / cholesterol / cholesterol + systemic / clinical chemistry / lipids / phospholipids
[32] = systemic / hematology / reticulocyte / reticulocyte + systemic / in life observation / clinical signs / hunched posture + systemic / in life…
[33] = systemic / in life observation / clinical signs / hunched posture + systemic / in life observation / clinical signs / piloerection
[34] = systemic / clinical chemistry / cholesterol / cholesterol + systemic / clinical chemistry / phosphorus / phosphate + systemic / clinical …
[35] = systemic / in life observation / clinical signs / hunched posture + systemic / pathology microscopic / liver / hypertrophy + systemic / in …
[36] = systemic / in life observation / clinical signs / dialated pupils + systemic / in life observation / clinical signs / defecation (diarrhea)
[37] = systemic / in life observation / clinical signs / dialated pupils + systemic / in life observation / clinical signs / defecation (diarrhea…
[38] = group: maternal, reproductive / reproductive performance / estrous cycle / abnormal
[39] = group: parental, systemic / in life observation / body weight / body weight gain + systemic / in life observation / clinical signs / hunched posture + …
[40] = group: developmental, systemic / in life observation / body weight / fetal weight
[41] = group: maternal, systemic / in life observation / body weight / body weight gain + systemic / in life observation / clinical signs / coma + systemic / in …

## C1COCCO1 [1,4-Dioxane]
[1]
  LEL: 380 mg/kg/day
  LOAEL: > 830 mg/kg/day
  NEL: < 380 mg/kg/day
  NOAEL: ≥ 830 mg/kg/day
[2]; [18]
  LOAEL: 240 mg/kg/day
  NOAEL: < 240 mg/kg/day
[2]; [19]
  LEL: 240 mg/kg/day
  NEL: < 240 mg/kg/day

## COc1cccc(-c2ccc(/C=C\CN3CCCCCC3)cc2Cl)c1.Cl
[3]
  LEL: 15 mg/kg/day
  LOAEL: 15 mg/kg/day
  NEL: 7.5 mg/kg/day
  NOAEL: 7.5 mg/kg/day
[4]; [20]
  LEL: 75 mg/kg/day
  LOAEL: 75 mg/kg/day
  NEL: 35 mg/kg/day
  NOAEL: 35 mg/kg/day
[4]; [21]
  LEL: 35 mg/kg/day
  LOAEL: 35 mg/kg/day
  NEL: 15 mg/kg/day
  NOAEL: 15 mg/kg/day
[5]; [22]
  LEL: 35 mg/kg/day
  LOAEL: 35 mg/kg/day
[5]; [23]
  NEL: 15 mg/kg/day
  NOAEL: 15 mg/kg/day
[6]; [24]
  LOAEL: 30 mg/kg/day
  NOAEL: < 30 mg/kg/day
[6]; [25]
  LEL: 30 mg/kg/day
  NEL: < 30 mg/kg/day
[7]; [26]
  LEL: 25 mg/kg/day
  NEL: < 25 mg/kg/day
[7]; [27]
  LOAEL: > 150 mg/kg/day
  NOAEL: ≥ 150 mg/kg/day
[8]; [20]
  LEL: 60 mg/kg/day
  LOAEL: 60 mg/kg/day
[8]; [28]
  NEL: 30 mg/kg/day
  NOAEL: 30 mg/kg/day
[8]; [29]
  LEL: 30 mg/kg/day
  LOAEL: 30 mg/kg/day
  NEL: < 30 mg/kg/day
  NOAEL: < 30 mg/kg/day
[9]; [30]
  LOAEL: 10 mg/kg/day
  NOAEL: 5 mg/kg/day
[9]; [31]
  LEL: 5 mg/kg/day
  NEL: < 5 mg/kg/day
[10]
  LEL: 90 mg/kg/day
  LOAEL: 90 mg/kg/day
  NEL: 30 mg/kg/day
  NOAEL: 30 mg/kg/day

## O=C(N[C@@H](c1ccccc1)[C@@H]1CCCCN1)c1cccc(C(F)(F)F)c1Cl
[11]; [22]
  LEL: 15 mg/kg/day
[11]; [23]
  LOAEL: > 30 mg/kg/day
  NEL: 5 mg/kg/day
  NOAEL: ≥ 30 mg/kg/day
[12]; [32]
  LOAEL: 25 mg/kg/day
  NOAEL: 5 mg/kg/day
[12]; [33]
  LEL: 5 mg/kg/day
  NEL: < 5 mg/kg/day
[13]; [34]
  LOAEL: > 50 mg/kg/day
  NOAEL: ≥ 50 mg/kg/day
[13]; [35]
  LEL: 5 mg/kg/day
  NEL: < 5 mg/kg/day
[14]
  LEL: 30 mg/kg/day
  LOAEL: 30 mg/kg/day
  NEL: 10 mg/kg/day
  NOAEL: 10 mg/kg/day
[15]; [36]
  LEL: 1 mg/kg/day
  NEL: < 1 mg/kg/day
[15]; [37]
  LOAEL: > 10 mg/kg/day
  NOAEL: ≥ 10 mg/kg/day
[16]; [38]
  LEL: 50 mg/kg/day
  LOAEL: > 50 mg/kg/day
  NEL: 25 mg/kg/day
  NOAEL: ≥ 50 mg/kg/day
[16]; [39]
  LEL: 25 mg/kg/day
  LOAEL: 25 mg/kg/day
  NEL: 5 mg/kg/day
  NOAEL: 5 mg/kg/day
[17]; [40]
  LEL: 25 mg/kg/day
  LOAEL: 25 mg/kg/day
  NEL: 5 mg/kg/day
  NOAEL: 5 mg/kg/day
[17]; group: maternal, systemic / in life observation / body weight / body weight gain
  LOAEL: 25 mg/kg/day
[17]; [41]
  NEL: 5 mg/kg/day
  NOAEL: 5 mg/kg/day
[17]; group: maternal, systemic / in life observation / body weight / body weight gain + systemic / in life observation / food consumption / food consumption
  LEL: 25 mg/kg/day
